Test results reported in patent US10745393B2, “Small molecular probes, processes and use thereof” (JAWAHARLAL NEHRU CENTRE FOR ADVANCED SCIENTIFIC RESEARCH, priority 2014, dated 2020).
Entries after “also recorded” stand apart in the source; their conditions may differ. Marks after values point to notes of the source that are not given here.

Columns and labels:
(GC)10 [1] = experiment: Fluorescence response / quantum yield of probes with dsDNA (GC)10; assay type: binding
HEK293 cells [2] = experiment: DNase I and RNase digestion studies; assay type: cell-based; settings: 2 hours
Experimental: DNase I is known to degrade nuclear DNA while RNase degrades RNA in the cytoplasm by catalyzing phosphodiester bonds cleavage. HEK293 cells are fixed with chilled methanol for about 1 minute at room temperature and permeabilized with 0.1% Triton X-100 in PBS for about 2×5 minutes. After rinsing with PBS twice, for one set of experiments, cells are treated with probe TC (5 μM) for about 15 min at room temperature in three adjacent wells. A total of about 200 μL PBS (as control experiment), about 100 μg/mL DNase I (Sigma), or about 30 μg/ml DNase-Free RNase (GE) is added into the three adjacent wells and incubated at about 37° C. for about 2 hours. For another set of experiments, instead of treating with probe TC, cells are only treated with about 200 μL PBS (as control experiment), about 100 μg/ml DNase I (Sigma), or about 30 μg/mL DNase-Free RNase (GE) by adding into the three adjacent wells and incubating at about 37° C. for about 2 hours. […] After two more washes in PBS with 0.1% Triton X-100, the cover slips are washed in PBS, rinsed in ddH2O and briefly dipped in 100% ethanol. After a quick dry, cover slips are mounted with 70% glycerol. Images are captured using a Carl Zeiss Laser Scanning Microscope (LSM510 META) using an equal exposure time for control, DNase I, and RNase experiments. Experiments are done in duplicate.

(AT)10 [3] = experiment: Absorption / fluorescence response of probes with dsDNA (AT)10; assay type: binding; settings: probe 10 μM
HeLa S3 cells = experiment: Confocal fluorescence nuclear staining, co-staining with Hoechst 33258; assay type: cell-based; settings: TC 5 μM
[4] = test system: ssDNA oligonucleotides (dA10, dT10, dG10 and dC10); experiment: Fluorescence emission in presence of ssDNA oligonucleotides; assay type: binding; settings: probe 10 μM, Tris-HCl buffer
(GC)10 [5] = experiment: Agarose gel electrophoresis staining of dsDNA band; assay type: binding; settings: 3% agarose gel, about 0.6 μg dsDNA, UV-illumination
Aβ42 aggregates [6] = target: T1, Aβ42 aggregates (Homo sapiens, UniProt P05067); experiment: Binding saturation assay (fluorescence) for binding constant
(D2)mix [7] = experiment: Fluorescence response of probes with dsDNA (D2)mix; assay type: binding
calf-thymus DNA (ct-DNA) = experiment: Fluorescence response in presence of calf-thymus DNA; assay type: binding; settings: TC 10 μM, ct-DNA 200 μg/mL
Excerpt: Furthermore, the fluorescence response of TC in presence of calf-thymus DNA (ct-DNA) is also studied.

[8] = target: ThT/Aβ42 aggregate complex (Homo sapiens, UniProt P05067); experiment: ThT displacement / FRET assay; assay type: binding; settings: decay at 483 nm, enhancement at 654 nm
d(AATT)5 = experiment: Absorption / fluorescence response with self-complementary d(AATT)5 duplex; assay type: binding
Aβ42 aggregates [9] = target: T1, Aβ42 aggregates; experiment: Absorption / fluorescence response with Aβ42 fibrillar aggregates; assay type: binding
(AT)20 = experiment: Thermal denaturation (UV-melting) of dsDNA with probe TC; assay type: binding
[10] = target: T2, islet amyloid polypeptide (IAPP) aggregates (Homo sapiens, UniProt P10997); experiment: Selectivity: fluorescence with IAPP aggregates; assay type: binding; settings: IAPP aggregates 20 μM
T2 construct: A 0.1 mg (Merck, calbiochem) sample of amylin is dissolved in 100 μL of acetonitrile; purchased Merck, calbiochem

cells [11] = experiment: Comparison of DNA dyes: cell permeability; assay type: cell-based; settings: Table 3, probe of the disclosure
[12] = test system: (AT)20-Hoechst 33258 complex; experiment: Competitive binding / FRET / CD study with preformed Hoechst complex; settings: Hoechst 4 μM + (AT)20, TC 0 to 40 μM, CD signal
[13] = Absorption, emission and quantum yield of probes in Tris-HCl buffer without DNA; assay type: physicochemical
(GC)10 [14] = experiment: Thermal denaturation (UV-melting) of dsDNA with probe TC; assay type: binding
DNA = experiment: Comparison of DNA dyes: sequence selectivity and fluorescence of free/DNA bound dye; assay type: binding
HepG2 cells = experiment: Confocal fluorescence staining of mammalian cells at low probe concentration; assay type: cell-based, human; settings: (FIG. 44 legend 2 μM)
(D2)mix [15] = experiment: Agarose gel electrophoresis staining of dsDNA band; assay type: binding; settings: 3% agarose gel, about 0.6 μg dsDNA, UV-illumination
cells [16] = experiment: Comparison of DNA dyes: toxicity; assay type: cell-based; settings: Table 3, probe of the disclosure
Excerpt: The major advantages of probe TC are: longer excitation/emission wavelengths (which avoids the cell damage due to the UV-light absorption commonly observed with probes like DAPI and Hoechst dyes, and auto-fluorescence from the cellular organelles and biomolecules), larger stoke shift (this provides additional advantage that avoids the self-absorption of higher energy part of their emission, useful in FRET and BRET based assays), good cell permeability (this is the major limitation of existing probes like propidium iodide, TO-PRO-dyes), non-toxicity (toxicity is the major limitation of NIR-fluorescence probes like DRAQ5 probe) and specific staining (commonly observed with SYTO and other dyes are non-specific in nature). Many commercial/reported dyes in literature are known to bind single stranded DNA, RNA etc. The probe TC is highly specific to double stranded DNA. […] In presence of AT-rich DNA, TC is a better probe than EtBr and PI which are highly toxic to cells.

HEK293 cells [17] = experiment: Nuclear staining with cytoplasmic marker α-tubulin; assay type: cell-based; settings: TC 5 μM
(AT)10 [18] = experiment: Thermal denaturation (UV-melting) of dsDNA with probe TC; assay type: binding
[19] = Absorption, emission and quantum yield of probes without Aβ42 aggregates; assay type: physicochemical
(D1)mix = experiment: Agarose gel electrophoresis staining of dsDNA band; assay type: binding; settings: 3% agarose gel, about 0.6 μg dsDNA, UV-illumination
[20] = Table 3, probe of the disclosure

T1 sequence (P05067 672-713 limits assumed): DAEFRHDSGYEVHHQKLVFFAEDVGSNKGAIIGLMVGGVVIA
Chain of ThT/Aβ42 aggregate complex (P05067 672-713 limits assumed, one chain of several): as the sequence (P05067 672-713 limits assumed) above
T2 sequence (P10997 34-70 limits assumed): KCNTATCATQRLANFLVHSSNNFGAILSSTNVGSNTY

CCN(CC)c1ccc2cc(/C=C/c3sc4ccccc4[n+]3C)c(=O)oc2c1 [TC, (E)-3-(2-(N-methyl-benzo[d]thiazol-2-yl)vinyl)-7-(diethylamino)-2H-chromen-2-one]
ΦF with (GC)10 ((GC)10 [1]; Tris-HCl buffer (100 mM, pH 7.4)): 0.04 | fluorescence change in presence of (GC)10 ((GC)10 [1]; probe 10 μM): does not show such fluorescence enhancement | fluorescence nuclear staining after DNase I digestion (HEK293 cells [2]; DNase I about 100 μg/mL): almost completely diminished | fluorescence nuclear staining after RNase digestion (HEK293 cells [2]; RNase about 30 μg/mL): does not affect the fluorescence staining | emission maxima in presence of (AT)10 ((AT)10 [3]): 616 nm | fluorescence enhancement in presence of (AT)10 ((AT)10 [3]; DNA 0 to 12 μM): ~8 fold | nuclear staining of HeLa S3 cells (HeLa S3 cells): selective targeting to the cell nucleus | emission behaviour in presence of ssDNA [4]: do not show significant changes in the emission behaviour | gel staining of (GC)10 band ((GC)10 [5]): not stained | association constant Ka (Aβ42 aggregates [6]; 2 μM of Aβ42 aggregates): 1.72e+07 M⁻¹ | Kd (Aβ42 aggregates [6]; fluorescence saturation curve, Aβ42 aggregates 10 μM (QC) or 2 μM (TC), read-out: dissociation constant Kd): 58 ± 1.2 nM | fluorescence enhancement in presence of (D2)mix ((D2)mix [7]; TC 10 μM, DNA 0 to 12 μM): ~1.5 fold | fluorescence enhancement in presence of (D2)mix ((D2)mix [7]; increasing concentrations of TC (1 μM to 20 μM), FIG. 10): ~1.5 fold | fluorescence response in presence of ct-DNA (calf-thymus DNA (ct-DNA)): strong fluorescence enhancement | displacement of ThT from ThT/Aβ42 aggregate complex [8]: effective displacement of ThT by TC | fluorescence enhancement in presence of d(AATT)5 (d(AATT)5): ~16 folds | absorption maximum TC/fibril (Aβ42 aggregates [9]; Experiment): 595 nm | quantum yield upon binding with Aβ42 aggregates (Aβ42 aggregates [9]; TC 2 μM): 40% | persistence of fluorescence of stained Aβ42 aggregates (Aβ42 aggregates [9]; aging): retain red fluorescence even after 50 days of aging | emission maximum in presence of Aβ42 aggregates (Aβ42 aggregates [9]; probe 2 μM): 654 nm | fluorescence enhancement in presence of Aβ42 aggregates (Aβ42 aggregates [9]; probe 2 μM, PBS buffer): ~30 fold | Tm(DNA + TC) ((AT)20): 49.7 °C | fluorescence enhancement with IAPP aggregates [10]: does not lead to significant fluorescence enhancements | Cell permeability (cells [11]): Permeable | competition with Hoechst for minor groove binding site [12]: not competing with Hoechst for binding site in the minor groove of dsDNA | ΦF in Buffer ([13]; Tris-HCl buffer (100 mM, pH 7.4), absence of DNA): 0.03 | emission (fluorescence) maxima ([13]; Tris-HCl buffer, no DNA, very weak fluorescence): 641 nm | absorption maxima ([13]; probe 10 μM, Tris-HCl buffer, no DNA): 528 nm | Tm(DNA + TC) ((GC)10 [14]): 60.3 °C | Fluorescence maxima DNA bound dye (DNA; [20]): 610 nm | Fluorescence maxima free dye (DNA; [20]): 641 nm | Fluorescence qauntum yield (ΦF) DNA bound dye (DNA; Table 3, superscript b): 0.36^b | preferential binding affinity, AT-sites versus GC-sites (DNA; fluorescence studies with dsDNAs): towards AT-sites than GC-sites | fluorescence / uptake in HepG2 cells (HepG2 cells): does not show any detectable fluorescence; also recorded: No detectable uptake | gel staining of (D2)mix band ((D2)mix [15]): strong fluorescence intensity | Toxicity (cells [16]): Non-Toxic | co-localization with cytoplasmic marker α-tubulin (HEK293 cells [17]): does not co-localize with cytoplasmic marker α-tubulin | Tm(DNA + TC) ((AT)10 [18]): 25.6 °C | absorption maximum TC/chloroform ([19]; Experiment): 561 nm | absorption maximum TC/water ([19]; Experiment): 537 nm | absorption maximum in absence of Aβ42 aggregates ([19]; PBS buffer (10 mM, pH 7.4)): 537 nm | emission maximum in absence of Aβ42 aggregates ([19]; PBS buffer, very weak fluorescence): 638 nm | gel staining of (D1)mix band ((D1)mix): strong fluorescence intensity
